#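 Compound exposure: 48 hours, 5 concentrations, 96-well plates. Here, GI50 denotes the concentration required for 50% inhibition of growth. The concentration for full growth arrest is given as TGI.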
# How the values were obtained:
# Test in all cases: DTP human tumour cell line panel, 48 h
# 786-0 renal = system: 786-0 renal
# A549 NSCLC = system: A549 NSCLC
# ACHN renal = system: ACHN renal
# BT-549 breast = system: BT-549 breast
# CAKI-1 renal = system: CAKI-1 renal
# CCRF-CEM leukemia = system: CCRF-CEM leukemia
# COLO 205 colon = system: COLO 205 colon
# DU-145 prostate = system: DU-145 prostate
# EKVX NSCLC = system: EKVX NSCLC
# HCC-2998 colon = system: HCC-2998 colon
# HCT-116 colon = system: HCT-116 colon
# HCT-15 colon = system: HCT-15 colon
# HL-60(TB) leukemia = system: HL-60(TB) leukemia
# HOP-62 NSCLC = system: HOP-62 NSCLC
# HOP-92 NSCLC = system: HOP-92 NSCLC
# HS 578T breast = system: HS 578T breast
# HT29 colon = system: HT29 colon
# IGROV1 ovarian = system: IGROV1 ovarian
# K-562 leukemia = system: K-562 leukemia
# KM12 colon = system: KM12 colon
# LOX IMVI melanoma = system: LOX IMVI melanoma
# M14 melanoma = system: M14 melanoma
# MALME-3M melanoma = system: MALME-3M melanoma
# MCF7 breast = system: MCF7 breast
# MDA-MB-231 breast = system: MDA-MB-231 breast
# MDA-MB-435 = system: MDA-MB-435
# MOLT-4 leukemia = system: MOLT-4 leukemia
# NCI-H226 lung = system: NCI-H226 lung
# NCI-H23 lung = system: NCI-H23 lung
# NCI-H460 lung = system: NCI-H460 lung
# NCI-H522 lung = system: NCI-H522 lung
# NCI/ADR-RES ovarian = system: NCI/ADR-RES ovarian
# OVCAR-3 ovarian = system: OVCAR-3 ovarian
# OVCAR-4 ovarian = system: OVCAR-4 ovarian
# OVCAR-5 ovarian = system: OVCAR-5 ovarian
# OVCAR-8 ovarian = system: OVCAR-8 ovarian
# PC-3 prostate = system: PC-3 prostate
# RPMI-8226 leukemia = system: RPMI-8226 leukemia
# RXF 393 renal = system: RXF 393 renal
# SF-268 CNS = system: SF-268 CNS
# SF-295 CNS = system: SF-295 CNS
# SF-539 CNS = system: SF-539 CNS
# SK-MEL-2 melanoma = system: SK-MEL-2 melanoma
# SK-MEL-28 melanoma = system: SK-MEL-28 melanoma
# SK-MEL-5 melanoma = system: SK-MEL-5 melanoma
# SN12C renal = system: SN12C renal
# SNB-19 CNS = system: SNB-19 CNS
# SNB-75 CNS = system: SNB-75 CNS
# SR leukemia = system: SR leukemia
# SW-620 colon = system: SW-620 colon
# TK-10 renal = system: TK-10 renal
# U251 CNS = system: U251 CNS
# UACC-257 melanoma = system: UACC-257 melanoma
# UACC-62 melanoma = system: UACC-62 melanoma
# UO-31 renal = system: UO-31 renal
compound,measurement,setting,value
COc1ccccc1C(=O)c1ccc2ccccc2c1,TGI,786-0 renal,> 100 µM
same,TGI,A549 NSCLC,> 100 µM
same,TGI,ACHN renal,> 100 µM
same,TGI,BT-549 breast,52.7 µM
same,TGI,CAKI-1 renal,49.2 µM
same,TGI,CCRF-CEM leukemia,> 100 µM
same,TGI,COLO 205 colon,61.5 µM
same,TGI,DU-145 prostate,> 100 µM
same,TGI,EKVX NSCLC,77.8 µM
same,TGI,HCC-2998 colon,> 100 µM
same,TGI,HCT-116 colon,> 100 µM
same,TGI,HCT-15 colon,> 100 µM
same,TGI,HL-60(TB) leukemia,21.8 µM
same,TGI,HOP-62 NSCLC,> 100 µM
same,TGI,HOP-92 NSCLC,66.5 µM
same,TGI,HS 578T breast,39.1 µM
same,TGI,HT29 colon,85.7 µM
same,TGI,IGROV1 ovarian,53 µM
same,TGI,K-562 leukemia,> 100 µM
same,TGI,KM12 colon,33.2 µM
same,TGI,LOX IMVI melanoma,31.7 µM
same,TGI,M14 melanoma,58.1 µM
same,TGI,MALME-3M melanoma,42.6 µM
same,TGI,MCF7 breast,> 100 µM
same,TGI,MDA-MB-231 breast,> 100 µM
same,TGI,MDA-MB-435,8.88 µM
same,TGI,MOLT-4 leukemia,34 µM
same,TGI,NCI-H226 lung,> 100 µM
same,TGI,NCI-H23 lung,> 100 µM
same,TGI,NCI-H460 lung,84.1 µM
same,TGI,NCI-H522 lung,21.5 µM
same,TGI,NCI/ADR-RES ovarian,> 100 µM
same,TGI,OVCAR-3 ovarian,39.6 µM
same,TGI,OVCAR-4 ovarian,> 100 µM
same,TGI,OVCAR-5 ovarian,> 100 µM
same,TGI,OVCAR-8 ovarian,75.9 µM
same,TGI,PC-3 prostate,> 100 µM
same,TGI,RPMI-8226 leukemia,97.5 µM
same,TGI,RXF 393 renal,61 µM
same,TGI,SF-268 CNS,> 100 µM
same,TGI,SF-295 CNS,79.8 µM
same,TGI,SF-539 CNS,25.8 µM
same,TGI,SK-MEL-2 melanoma,37.5 µM
same,TGI,SK-MEL-28 melanoma,> 100 µM
same,TGI,SK-MEL-5 melanoma,19.8 µM
same,TGI,SN12C renal,> 100 µM
same,TGI,SNB-19 CNS,78.4 µM
same,TGI,SNB-75 CNS,> 100 µM
same,TGI,SR leukemia,16.1 µM
same,TGI,SW-620 colon,75.2 µM
same,TGI,TK-10 renal,63.6 µM
same,TGI,U251 CNS,> 100 µM
same,TGI,UACC-257 melanoma,> 100 µM
same,TGI,UACC-62 melanoma,> 100 µM
same,TGI,UO-31 renal,64.7 µM
CN(C)c1nc(-c2cccs2)n2nc(-c3ccc(Cl)cc3)cc2n1,GI50,786-0 renal,3.93 µM
same,TGI,786-0 renal,> 100 µM
same,GI50,ACHN renal,3.97 µM
same,TGI,ACHN renal,> 100 µM
same,GI50,BT-549 breast,62.8 µM
same,TGI,BT-549 breast,> 100 µM
same,GI50,CCRF-CEM leukemia,> 100 µM
same,TGI,CCRF-CEM leukemia,> 100 µM
same,GI50,DU-145 prostate,> 100 µM
same,TGI,DU-145 prostate,> 100 µM
same,GI50,EKVX NSCLC,4.38 µM
same,TGI,EKVX NSCLC,> 100 µM
same,GI50,HCC-2998 colon,> 100 µM
same,TGI,HCC-2998 colon,> 100 µM
same,GI50,HCT-116 colon,2430 nM
same,TGI,HCT-116 colon,> 100 µM
same,GI50,HCT-15 colon,> 100 µM
same,TGI,HCT-15 colon,> 100 µM
same,GI50,HL-60(TB) leukemia,> 100 µM
same,TGI,HL-60(TB) leukemia,> 100 µM
same,GI50,HOP-62 NSCLC,2270 nM
same,TGI,HOP-62 NSCLC,6.53 µM
same,GI50,HS 578T breast,3.11 µM
same,TGI,HS 578T breast,> 100 µM
same,GI50,IGROV1 ovarian,5.28 µM
same,TGI,IGROV1 ovarian,> 100 µM
same,GI50,K-562 leukemia,> 100 µM
same,TGI,K-562 leukemia,> 100 µM
same,GI50,KM12 colon,> 100 µM
same,TGI,KM12 colon,> 100 µM
same,GI50,LOX IMVI melanoma,3.58 µM
same,TGI,LOX IMVI melanoma,> 100 µM
same,GI50,MCF7 breast,> 100 µM
same,TGI,MCF7 breast,> 100 µM
same,GI50,MDA-MB-231 breast,3.7 µM
same,TGI,MDA-MB-231 breast,> 100 µM
same,GI50,MOLT-4 leukemia,> 100 µM
same,TGI,MOLT-4 leukemia,> 100 µM
same,GI50,NCI-H226 lung,2730 nM
same,TGI,NCI-H226 lung,> 100 µM
same,GI50,NCI-H23 lung,6.51 µM
same,TGI,NCI-H23 lung,> 100 µM
same,GI50,NCI-H522 lung,> 100 µM
same,TGI,NCI-H522 lung,> 100 µM
same,GI50,OVCAR-5 ovarian,> 100 µM
same,TGI,OVCAR-5 ovarian,> 100 µM
same,GI50,OVCAR-8 ovarian,3.59 µM
same,TGI,OVCAR-8 ovarian,> 100 µM
same,GI50,RPMI-8226 leukemia,> 100 µM
same,TGI,RPMI-8226 leukemia,> 100 µM
same,GI50,RXF 393 renal,3.39 µM
same,TGI,RXF 393 renal,> 100 µM
same,GI50,SF-268 CNS,21.3 µM
same,TGI,SF-268 CNS,> 100 µM
same,GI50,SF-295 CNS,2490 nM
same,TGI,SF-295 CNS,> 100 µM
same,GI50,SF-539 CNS,25.5 µM
same,TGI,SF-539 CNS,> 100 µM
same,GI50,SK-MEL-2 melanoma,9.03 µM
same,TGI,SK-MEL-2 melanoma,> 100 µM
same,GI50,SK-MEL-28 melanoma,> 100 µM
same,TGI,SK-MEL-28 melanoma,> 100 µM
same,GI50,SN12C renal,> 100 µM
same,TGI,SN12C renal,> 100 µM
same,GI50,SNB-19 CNS,64.1 µM
same,TGI,SNB-19 CNS,> 100 µM
same,GI50,SNB-75 CNS,2260 nM
same,TGI,SNB-75 CNS,10.4 µM
same,GI50,SR leukemia,> 100 µM
same,TGI,SR leukemia,> 100 µM
same,GI50,SW-620 colon,> 100 µM
same,TGI,SW-620 colon,> 100 µM
same,GI50,UACC-62 melanoma,5.92 µM
same,TGI,UACC-62 melanoma,> 100 µM
